Experimental data: publication PMC3285443 (European Journal of Pharmaceutical Sciences, 2010)
≈ marks a conversion by molar mass, not a printed value. Where two headings read alike, the source gives them in different places.

Tests used:
[1] = cassette-dosing oral pharmacokinetic screening in dogs; details: dog; for AUC / half-life: female, Labrador retriever, plasma, po, 0.3 mg/kg; for C24/IC50 (ratio of blood concentration over the IC50 with recombinant human sEH after 24 hour): n=1
[2] = biological target: T1, recombinant human soluble epoxide hydrolase (Homo sapiens, UniProt P34913); assay: fluorescent assay with CMNPC substrate, recombinant human sEH; type: biochemical
T1 sequence (P34913 1-555): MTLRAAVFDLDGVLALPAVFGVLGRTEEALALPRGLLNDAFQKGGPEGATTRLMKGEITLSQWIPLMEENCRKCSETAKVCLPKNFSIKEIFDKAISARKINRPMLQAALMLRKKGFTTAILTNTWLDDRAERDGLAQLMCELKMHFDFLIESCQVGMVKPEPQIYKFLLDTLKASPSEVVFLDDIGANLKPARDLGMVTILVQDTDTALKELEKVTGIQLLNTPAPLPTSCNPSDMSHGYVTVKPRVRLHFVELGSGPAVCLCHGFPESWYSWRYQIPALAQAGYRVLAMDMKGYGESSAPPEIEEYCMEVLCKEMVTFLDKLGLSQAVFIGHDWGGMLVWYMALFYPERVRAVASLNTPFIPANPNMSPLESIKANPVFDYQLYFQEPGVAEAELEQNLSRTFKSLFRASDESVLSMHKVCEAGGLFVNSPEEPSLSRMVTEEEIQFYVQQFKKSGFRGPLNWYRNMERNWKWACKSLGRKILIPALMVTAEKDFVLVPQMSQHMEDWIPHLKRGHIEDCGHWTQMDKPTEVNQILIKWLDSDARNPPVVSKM

[3] = biological target: T2, recombinant murine sEH (Mus musculus, UniProt P34914); assay: fluorescent assay with CMNPC substrate, recombinant mouse sEH; type: biochemical
T2 sequence (P34914 1-554): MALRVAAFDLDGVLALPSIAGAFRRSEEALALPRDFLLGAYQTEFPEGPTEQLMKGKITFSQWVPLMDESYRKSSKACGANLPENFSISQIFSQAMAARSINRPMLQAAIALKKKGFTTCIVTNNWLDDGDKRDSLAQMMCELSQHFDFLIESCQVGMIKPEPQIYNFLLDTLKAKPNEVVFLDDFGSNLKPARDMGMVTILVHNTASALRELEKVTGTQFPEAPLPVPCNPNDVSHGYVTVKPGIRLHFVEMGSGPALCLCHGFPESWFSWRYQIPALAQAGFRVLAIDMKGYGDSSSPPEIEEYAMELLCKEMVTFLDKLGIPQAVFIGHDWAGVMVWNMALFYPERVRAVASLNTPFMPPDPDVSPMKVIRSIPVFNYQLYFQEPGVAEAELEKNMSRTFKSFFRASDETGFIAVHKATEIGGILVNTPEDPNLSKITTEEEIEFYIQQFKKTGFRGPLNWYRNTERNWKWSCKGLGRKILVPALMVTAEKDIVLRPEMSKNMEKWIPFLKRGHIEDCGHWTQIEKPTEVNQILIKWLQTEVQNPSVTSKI

[4] = biological target: T3, human recombinant sEH (Homo sapiens, UniProt P34913); assay: radioactive t-DPPO assay, purified recombinant human sEH; type: biochemical
T3 sequence (P34913 1-555): T1 sequence (P34913 1-555)

[5] = biological target: human sEH (human liver cytosol) (Homo sapiens, UniProt P34913); assay: LC/MS assay with 14,15-EET substrate, human liver cytosol; type: biochemical
[6] = biological target: T4, purified human recombinant sEH (Homo sapiens, UniProt P34913); type: biochemical
T4 sequence (P34913 1-555): T1 sequence (P34913 1-555)

[7] = experimental LogP determination; details: for logP at 24 h: 1-octanol / 0.1 M sodium phosphate buffer, pH 7.4
[8] = biological target: T5, recombinant rat sEH (Rattus norvegicus, UniProt P80299); assay: fluorescent assay with CMNPC substrate, recombinant rat sEH; type: biochemical
T5 sequence (P80299 1-554): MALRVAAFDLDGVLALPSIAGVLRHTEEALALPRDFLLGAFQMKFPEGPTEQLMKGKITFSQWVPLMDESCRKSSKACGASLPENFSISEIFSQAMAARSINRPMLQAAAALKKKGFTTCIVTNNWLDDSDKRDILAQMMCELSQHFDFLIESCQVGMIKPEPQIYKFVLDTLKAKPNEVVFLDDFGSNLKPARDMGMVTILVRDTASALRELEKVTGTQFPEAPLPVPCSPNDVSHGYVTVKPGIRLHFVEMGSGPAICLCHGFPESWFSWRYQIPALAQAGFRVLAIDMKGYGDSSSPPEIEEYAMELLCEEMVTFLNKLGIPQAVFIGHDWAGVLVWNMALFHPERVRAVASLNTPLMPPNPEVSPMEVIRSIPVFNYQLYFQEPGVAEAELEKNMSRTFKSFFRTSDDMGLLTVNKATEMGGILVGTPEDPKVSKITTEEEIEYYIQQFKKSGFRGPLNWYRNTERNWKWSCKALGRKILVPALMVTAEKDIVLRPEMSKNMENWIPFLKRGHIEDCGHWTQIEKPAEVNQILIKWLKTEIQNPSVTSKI

[9] = water solubility determination; details: 0.1 M sodium phosphate buffer (pH 7.4), 25°C, 24 hours
[10] = in vivo; details: female, Labrador retriever, dog, po, 0.3 mg/kg
[11] = in vivo; details: female, Labrador retriever, dog, iv
[12] = physchem; details: 25 °C, pH 7.4, aqueous buffer, thermodynamic from solid
[13] = compartmental pharmacokinetics after oral gavage; details: female, Labrador retriever, dog, plasma, 0.3 mg/kg
[14] = compartmental pharmacokinetics after i.v. administration in dogs; details: female, Labrador retriever, dog, plasma, iv

SMILES | AUC [1] | half-life [1] | IC50 [3] | IC50 [4] | logP at 24 h [7] | IC50 [8] | C24/IC50 (ratio of blood concentration over the IC50 with recombinant human sEH after 24 hour) ([1]; oral 0.3 mg/kg cassette dosing) | further results
CS(=O)(=O)N1CCC(NC(=O)Nc2ccc(OC(F)(F)F)cc2)CC1 [compound 27, 1-(1-methylsulfonyl-piperidin-4-yl)-3-(4-trifluoromethoxy-phenyl)-urea] | 28.3 µM·h | > 24 h | 5 nM | 26 nM | 1.9 | 9 nM | – | IC50 ([2]; IC50, CMNPC, Human, purified recombinant enzyme at […]): 3 nM; IC50 [5]: 26 nM; IC50 ([6]; IC50 on human sEH in buffer, buffer): 150 nM; IC50 ([6]; IC50 on human sEH incubated in sEH depleted canine liver cytosol, sEH depleted canine liver cytosol supplemented with purified human recombinant sEH): 120 nM
CC(=O)N1CCC(NC(=O)Nc2ccc(OC(F)(F)F)cc2)CC1 [compound 24] | – | – | – | – | – | – | – | T1/2 (terminal half-life) ([1]; oral 0.3 mg/kg cassette dosing, n=1, non-compartmental): >24 h; LogP (pH 7.4) ([7]; octanol / 0.1 M sodium phosphate buffer at pH 7.4): 2.3; Water solubility [9]: 51 µg/mL
CC(=O)N1CCC(NC(=O)NC23CC4CC(CC(C4)C2)C3)CC1 [compound 14, N-(1-acetylpiperidin-4-yl)-N’-(adamant-1-yl) urea] | – | – | – | – | – | – | – | Cmax [10]: 80 ± 30 nM; Tmax [10]: 1 ± 0.7 h; half-life [10]: 1.7 ± 0.4 h; clearance [11]: 40 mL/min/kg; half-life [11]: 0.6 ± 0.1 h; solubility at 24 h [12]: 490 µg/mL (≈ 1530 µM)
CCOCCOCCOCCCCCNC(=O)NC12CC3CC(CC(C3)C1)C2 [compound 3, 1-adamantan-1-yl-3-{5-[2-(2-ethoxyethoxy)ethoxy]pentyl}urea] | 0.04 µM·h | 1 h | – | – | 2.6 | – | – | AUC [13]: 0.03 µM·h; Cmax [13]: 20 ± 10 nM; Tmax [13]: 0.2 ± 0.1 h; half-life [13]: 1.7 ± 1 h; clearance [14]: 96.7 mL/min/kg; half-life [14]: 9.6 ± 1.8 min
CC(=O)N1CCC(NC(=O)NC2CCCCCC2)CC1 [compound 31, 1-cycloheptyl-3-(1-acetylpiperidin-4-yl) urea] | 3.67 µM·h | 5.2 h | 12 nM | 300 nM | – | 7 nM | 1.0 | IC50 ([2]; IC50, CMNPC, Human): 28 nM
O=C(O)CCCCCCCCCCCNC(=O)NC12CC3CC(CC(C3)C1)C2 [compound 1, 12-(3-adamantane-1-yl-ureido)-dodecanoic acid] | – | – | – | – | 3 | – | – | –
COC(=O)c1ccc(NC(=O)NC23CC4CC(CC(C4)C2)C3)cc1O [compound 62, 4-(3-adamantane-1-yl-ureido)-2-hydroxyl-benzoic acid methyl ester] | 0.21 µM·h | – | 10 nM | 6 nM | – | 8 nM | 0.7 | IC50 [2]: 3 nM
O=C(Nc1ccc(Cl)cc1)Nc1ccc(Cl)c(Cl)c1 [compound 74, triclocarban, reference compound] | 0.03 µM·h | 0.5 h | – | – | – | – | <0.1 | –
